Experimental data as given in patent publication US5453518A, “Flavone derivatives” (Recordati S.A., Chemical and Pharmaceutical Company, priority 1992, dated 1995).
Where a name gives a salt, the structure may show the parent alone. Read-outs that look alike come from different tables or passages of the source.

Assays:
[1] = tested on: rat bladder (K^+ -induced contractions); experiment: Inhibition of K^+ -induced rat bladder contractions; set-up: species or system rat (male Sprague Dawley); settings: for IC50: 0.5 h, KCl 80 mM, 30 min after drug, isolated rat bladder; for activity of N-oxide compounds: in words, based on the Table
Experimental: Female Albino Swiss mice [Crl: CD-1 (ICR) BR] with a body weight of 20-30 g and male Sprague Dawley rats [Crl: CD° BR] with a body weight of 200-300 g, from the Charles River Farm, Italy, were used for the trials. The animals were housed with free access to food and water and kept on a forced light-darkness cycle at 22°-24° C. until the day of the trials. Male rats were killed by a blow on their heads and their lower abdomens were opened along the midlines. Their urinary bladders were removed by a transverse dissection above the trigone and cut into two fragments (20-30 mm long, 1-2 mm wide). Each fragment was suspended in an isolated organ bath containing 10 ml of a normal Tyrode solution (composition in mM: NaCl 137, KCl 2.68, MgCl2 1.11, CaCl2 1.8, NaH2 PO4 0.41, NaHCO3 11.9, glucose 5.55) and connected, under a steady 1 g load, to an isometric transducer (DY-1, Basile). The solution was gassed with a mixture of 95% O2 and 5% CO2 and heated at 37° C. After a 60 minute equilibration the tension responses to a single KCl dose (Bath concentration=80 mM) inducing phasic and tonic contractions were measured under isometric conditions at 30 minute intervals. After recording one or more reproducible responses, a solution of the test drug was added to the bath (final concentration from 10^-4 to 10^-9 M) and 30 minutes later a new contraction was induced. The experimental groups were made up of at least 2 preparations from different animals for each drug concentration tested. The IC50 values of the inhibition of the agonist-induced contractions were evaluated by linear regression analysis.

[2] = Acute toxicity in mice (LD50); format: in vivo; settings: mouse, in vivo, mice, death rate 7 days after administration
Experimental: (§1) Female Albino Swiss mice [Crl: CD-1 (ICR) BR] with a body weight of 20-30 g and male Sprague Dawley rats [Crl: CD° BR] with a body weight of 200-300 g, from the Charles River Farm, Italy, were used for the trials. The animals were housed with free access to food and water and kept on a forced light-darkness cycle at 22°-24° C. until the day of the trials.
(§2) The acute toxicity was evaluated in female Albino Swiss mice after intraperitoneal or oral administrations. Four logarithmic scaled doses of the compounds were dissolved or suspended in 0.5% aqueous Methocel and administered at a volume of 10 ml/kg to groups of 4 mice/dose. The death rate was recorded 7 days after the administration.
(§3) The LD50 values and the relevant confidence limits were calculated according to the method of Weil (Biometrics, 8, 249, 1952).

[3] = Stability at 37° C. and physiological pH (phosphate buffer, pH=7.4); format: physicochemical; settings: pH 7.4 phosphate buffer, read-out: Stability at pH 7.4, % Unchanged after 3 h
From the text: The stability of the other compounds of the invention was not investigated as they are known to be less subject to degradation than the esters.

[4] = tested on: Female Albino Swiss mice; experiment: Acute toxicity in mice (LD50); format: in vivo; settings: in words; LD50/IC50 compared with Flavoxate
Experimental: as §1, §2, §3

[5] = phasic contraction, read-out: IC50, inhibition of K^+ -induced rat bladder contractions, Phasic
[6] = tonic contraction, read-out: IC50, inhibition of K^+ -induced rat bladder contractions, Tonic
[7] = ip, i.p., read-out: Mice LD50 i.p.
[8] = po, p.o., read-out: Mice LD50 p.o.

Row | SMILES | IC50 [1, 5] | IC50 [1, 6] | LD50 at 168 h [2, 7] | LD50 at 168 h [2, 8] | activity of N-oxide compounds [1] | remaining at 3 h [3] | relative therapeutic index (LD50/IC50) versus Flavoxate [4]
1 | COc1ccc(C(C#N)(CCCN(C)CC(=O)c2cccc3c(=O)c(C)c(-c4ccccc4)oc23)C(C)C)cc1OC.Cl.O (stereo not shown) [Example 1, 8-{2-[4-Cyano-4-(3,4-dimethoxyphenyl)-5,N-dimethylhexylamino]-1-oxoethyl}-3-methyl-4-oxo-2-phenyl-4H-1-benzopyran hydrochloride hydrate] | 10000 nM | > 10000 nM | 475 mg/kg | > 3000 mg/kg |  |  | 
2 | COc1ccc(CCN(C)CCCOC(=O)c2cccc3c(=O)c(C)c(-c4ccccc4)oc23)cc1OC.Cl [Example 2, 8-{3-[2-(3,4-Dimethoxyphenyl)-N-methylethylamino]propoxycarbonyl}-3-methyl-4-oxo-2-phenyl-4H-1-benzopyran hydrochloride] | 1000 nM | 500 nM | 773 mg/kg | 2260 mg/kg |  |  | 
3 | COc1ccc(CC[N+](C)([O-])CCCOC(=O)c2cccc3c(=O)c(C)c(-c4ccccc4)oc23)cc1OC (stereo not shown) [Example 3, 8-{3-[2-(3,4-Dimethoxyphenyl)-N-methyl-N-oxoethylamino]-propoxycarbonyl}-3-methyl-4-oxo-2-phenyl-4H-1-benzopyran hydrochloride] | > 10000 nM | > 10000 nM | > 1000 mg/kg | > 3000 mg/kg | do not appear to be very active |  | 
4 | COc1ccc(C(C#N)(CCCN(C)CCCOC(=O)c2cccc3c(=O)c(C)c(-c4ccccc4)oc23)C(C)C)cc1OC.Cl (stereo not shown) [Example 4, 8-{3-[4-Cyano-4-(3,4-dimethoxyphenyl)-N,5-dimethylhexylamino]propoxycarbonyl}-3-methyl-4-oxo-2-phenyl-4H-1-benzopyran hydrochloride] | 500 nM | 1300 nM | > 1000 mg/kg | > 3000 mg/kg |  | 100% | 
5 | COc1ccc(C(C#N)(CCC[N+](C)([O-])CCCOC(=O)c2cccc3c(=O)c(C)c(-c4ccccc4)oc23)C(C)C)cc1OC (stereo not shown) [Example 5, 8-{3-[4-Cyano-4-(3,4-dimethoxyphenyl)-N,5-dimethyl-N-oxohexylamino]propoxycarbonyl}-3-methyl-4-oxo-2-phenyl-4H-1-benzopyran hydrochloride x 0.25 H2 O] | 10000 nM | 2200 nM | > 1000 mg/kg | > 3000 mg/kg | do not appear to be very active |  | 
6 | CCN(CCCOC(=O)c1cccc2c(=O)c(C)c(-c3ccccc3)oc12)C(C)Cc1ccc(OC)cc1.Cl (stereo not shown) [Example 6, 8-{3-[N-Ethyl-3-(4-methoxyphenyl)-2-propylamino]propoxycarbonyl}-3-methyl-4-oxo-2-phenyl-4H-1-benzopyran hydrochloride] | 1700 nM | 4200 nM | > 1000 mg/kg | > 3000 mg/kg |  | 99% | 
7 | COc1ccc(CC2c3cc(OC)c(OC)cc3CCN2CCCOC(=O)c2cccc3c(=O)c(C)c(-c4ccccc4)oc23)cc1OC (stereo not shown) [Example 7, 8-{3-[1-(3,4-Dimethoxybenzyl)-6,7-dimethoxy-2H-1,2,3,4-tetrahydro-2-isoquinolinyl]propoxycarbonyl}-3-methyl-4-oxo-2-phenyl-4H-1-benzopyran hydrochloride] | 1400 nM | 900 nM | > 1000 mg/kg | > 3000 mg/kg |  | 99% | 
8 | COc1ccc(C(C#N)(CCCN(C)CCCNC(=O)c2cccc3c(=O)c(C)c(-c4ccccc4)oc23)C(C)C)cc1OC (stereo not shown) [Example 11, 8-{3-[4-Cyano-4-(3,4-dimethoxyphenyl)-N,5-dimethylhexylamino]propylcarbamoyl}-3-methyl-4-oxo-2-phenyl-4H-1-benzopyran hydrochloride hemihydrate] | 600 nM | 500 nM | 224 mg/kg | 400 mg/kg |  |  | considerably safer than Flavoxate
9 | COc1ccc(CCN(C)CCCNC(=O)c2cccc3c(=O)c(C)c(-c4ccccc4)oc23)cc1OC [Example 12, 8-{3-[2-(3,4-Dimethoxyphenyl)-N-methylethylamino]propylcarbamoyl}-3-methyl-4-oxo-2-phenyl-4H -1-benzopyran hydrochloride 0.3-hydrate] | 2200 nM | 1400 nM | 129 mg/kg | 716 mg/kg |  |  | 
10 | COc1ccc(C(C#N)(CCCN(C)CCNC(=O)c2cccc3c(=O)c(C)c(-c4ccccc4)oc23)C(C)C)cc1OC (stereo not shown) [Example 13, 8-{2-[4-Cyano-4-(3,4-dimethoxyphenyl)-N,5-dimethylhexylamino]ethylcarbamoyl}-3-methyl-4-oxo-2-phenyl-4H-1-benzopyran hydrochloride hemihydrate] | 300 nM | 100 nM | 422 mg/kg |  |  |  | 
11 | COc1ccc(C(C#N)(CCCN(C)CCN(C)C(=O)c2cccc3c(=O)c(C)c(-c4ccccc4)oc23)C(C)C)cc1OC.Cl.O (stereo not shown) [Example 14, 8-{2-[4-Cyano-4-(3,4-dimethoxyphenyl)-N,5-dimethylhexylamino]-N-methylethylcarbamoyl}-3-methyl-4-oxo-2-phenyl-4H-1-benzopyran hydrochloride hydrate] | 100 nM | 100 nM | 159 mg/kg | 346 mg/kg |  |  | considerably safer than Flavoxate
12 | COc1ccc(C(C#N)(CCCN(C)CC(=O)NCc2cccc3c(=O)c(C)c(-c4ccccc4)oc23)C(C)C)cc1OC.Cl.O.O (stereo not shown) [Example 16, 8-{2-[4-Cyano-4-(3,4-dimethoxyphenyl)-N,5-dimethylhexylamino]-1-oxoethylaminomethyl}-3-methyl-4-oxo-2-phenyl-4H -1-benzopyran hydrochloride dihydrate] | 500 nM | 900 nM | 440 mg/kg | 1280 mg/kg |  |  | 
13 | COc1ccc(C(C#N)(CCCN(C)CC(=O)N(C)Cc2cccc3c(=O)c(C)c(-c4ccccc4)oc23)C(C)C)cc1OC.Cl.O (stereo not shown) [Example 17, 8-{2-[4-Cyano-4-(3,4-dimethoxyphenyl)-N,5-dimethylhexylamino]-N-methyl-1-oxo-ethylaminomethyl}-3-methyl-4-oxo-2-phenyl-4H-1-benzopyran hydrochloride hydrate] | 200 nM | 400 nM | 334 mg/kg | 1710 mg/kg |  |  | 
14 | COc1ccc(C(C#N)(CCCN(C)CCOCc2cccc3c(=O)c(C)c(-c4ccccc4)oc23)C(C)C)cc1OC.Cl.O (stereo not shown) [Example 18, 8-{2-[4-Cyano-4-(3,4-dimethoxyphenyl)-5,N-dimethylhexylamino]ethoxymethyl}-3-methyl-4-oxo-2-phenyl-4H-1-benzopyran hydrochloride hydrate] | 300 nM | 400 nM | 334 mg/kg | 974 mg/kg |  |  | 
15 | COc1ccc(C(C#N)(CCCN(C)CCSCc2cccc3c(=O)c(C)c(-c4ccccc4)oc23)C(C)C)cc1OC.Cl (stereo not shown) [Example 19, 8-{2-[4-Cyano-4-(3,4-dimethoxyphenyl)-5,N-dimethylhexylamino]ethylthiomethyl}-3-methyl-4-oxo-2-phenyl-4H-1-benzopyran hydrochloride] | 500 nM | 1300 nM | > 1000 mg/kg | > 3000 mg/kg |  |  | 
16 | COc1ccc(C(C#N)(CCCN(C)CCS(=O)(=O)Cc2cccc3c(=O)c(C)c(-c4ccccc4)oc23)C(C)C)cc1OC (stereo not shown) [Example 20, 8-{2-[4-Cyano-4-(3,4-dimethoxyphenyl)-5,N-dimethylhexylamino]ethylsulphonylmethyl}-3-methyl-4-oxo-2-phenyl-4H-1-benzopyran hydrochloride hemihydrate] | 500 nM | 500 nM | > 1000 mg/kg | > 3000 mg/kg |  |  | 
